Results as given in US20250281649A1, “PROBE DIRECTED TO ENZYME ALDH1A3 AND USE THEREOF IN THE DIAGNOSIS OF GLIOBLASTOMA” (Universita' Degli Studi Del Piemonte Orientale "A. Avogadro", priority 2021, published 2025).

Experiments:
Assay in all cases: IC50 evaluation, NADH formation at 340 nm (Tecan SUNRISE)
Assay type in all cases: biochemical
ALDH1A1 = target: T1, ALDH1A1 (Homo sapiens, UniProt P00352); settings: ALDH1A1; 20 mM acetaldehyde, 500 μM NAD+, 15% DMSO, 2.7 μM isoenzyme; read-out: IC50
T1 construct: His-tag; made in house; host or cells: bacterial cells
T1 sequence (P00352 1-501): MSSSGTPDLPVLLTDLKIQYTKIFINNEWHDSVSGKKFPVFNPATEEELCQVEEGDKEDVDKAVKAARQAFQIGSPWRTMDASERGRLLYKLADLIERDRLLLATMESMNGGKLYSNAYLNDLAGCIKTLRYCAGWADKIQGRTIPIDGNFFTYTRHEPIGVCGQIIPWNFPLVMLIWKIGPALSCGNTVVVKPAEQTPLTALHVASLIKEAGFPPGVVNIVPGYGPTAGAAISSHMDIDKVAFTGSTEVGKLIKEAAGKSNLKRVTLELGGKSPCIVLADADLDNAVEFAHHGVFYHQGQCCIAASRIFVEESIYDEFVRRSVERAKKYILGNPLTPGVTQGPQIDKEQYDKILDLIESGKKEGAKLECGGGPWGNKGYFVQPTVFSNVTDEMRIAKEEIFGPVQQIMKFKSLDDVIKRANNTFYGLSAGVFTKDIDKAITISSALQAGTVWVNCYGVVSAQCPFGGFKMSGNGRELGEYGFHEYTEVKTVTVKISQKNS
Description: (§1) A common protocol to express and purify all three members of the ALDHIA subfamily has been optimized. Briefly, induced cells, collected by centrifugation, were re-suspended in an appropriate volume of lysis buffer (50 mM Na2HPO4, 300 mM NaCl, 1 mM β-mercaptoethanol, 20 mM imidazole, pH 7.5) added of benzonase nuclease (250 U/μL) and Protease inhibitor cocktail from SIGMA. After ultracentrifugation, the clarified sample was purified by a His-tag affinity chromatography followed by size-exclusion chromatography, using an AKTA FPLC system, at 4° C. To evaluate the purity and homogeneity of the protein, after each purification step, eluted d fractions were analyzed by SDS-PAGE and the protein quantification was always determined by Bradford protein assay.
(§2) IC50 evaluation: on a Tecan—SUNRISE, probe 13 was tested in a serial dilution series from 200 μM to 3, 125 μM, against all the three isoenzymes. The recipe of reaction buffer was: 20 mM Tris HCl pH=8, 150 mM KCl, 1 mM B-mercaptoethanol, 500 μM NAD^+, 15% DMSO fixed, 20 mM acetaldehyde and 2.7 μM each isoenzyme. The analysis was conducted measuring the NADH formation, that has a specific absorbance wavelength (340 nm). The test was performed in triplicate with all the three isoenzymes.

ALDH1A2 = target: T2, ALDH1A2 (Homo sapiens, UniProt O94788); settings: 20 mM acetaldehyde, 500 μM NAD+, 15% DMSO, 2.7 μM isoenzyme, read-out: IC50
T2 construct: His-tag; made in house; host or cells: bacterial cells
T2 sequence (O94788 1-518): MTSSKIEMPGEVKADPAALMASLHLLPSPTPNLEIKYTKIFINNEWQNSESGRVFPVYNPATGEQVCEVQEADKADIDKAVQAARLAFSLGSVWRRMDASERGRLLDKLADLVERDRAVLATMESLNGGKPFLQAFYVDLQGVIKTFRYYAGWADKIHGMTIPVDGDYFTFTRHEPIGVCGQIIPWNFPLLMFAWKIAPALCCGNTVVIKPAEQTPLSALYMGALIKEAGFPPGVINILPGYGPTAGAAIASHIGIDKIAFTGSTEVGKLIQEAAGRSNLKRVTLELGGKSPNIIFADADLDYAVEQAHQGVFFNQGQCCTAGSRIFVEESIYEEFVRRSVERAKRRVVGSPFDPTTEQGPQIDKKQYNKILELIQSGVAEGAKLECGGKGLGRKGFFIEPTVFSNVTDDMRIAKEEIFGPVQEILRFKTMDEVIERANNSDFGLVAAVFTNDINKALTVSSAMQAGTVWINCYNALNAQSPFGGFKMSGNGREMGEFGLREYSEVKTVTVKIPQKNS
Description: as §1, §2

ALDH1A3 = target: T3, ALDH1A3 (Homo sapiens, UniProt P47895); settings: ALDH1A3; 20 mM acetaldehyde, 500 μM NAD+, 15% DMSO, 2.7 μM isoenzyme; read-out: IC50
T3 construct: His-tag; made in house; host or cells: bacterial cells
T3 sequence (P47895 1-512): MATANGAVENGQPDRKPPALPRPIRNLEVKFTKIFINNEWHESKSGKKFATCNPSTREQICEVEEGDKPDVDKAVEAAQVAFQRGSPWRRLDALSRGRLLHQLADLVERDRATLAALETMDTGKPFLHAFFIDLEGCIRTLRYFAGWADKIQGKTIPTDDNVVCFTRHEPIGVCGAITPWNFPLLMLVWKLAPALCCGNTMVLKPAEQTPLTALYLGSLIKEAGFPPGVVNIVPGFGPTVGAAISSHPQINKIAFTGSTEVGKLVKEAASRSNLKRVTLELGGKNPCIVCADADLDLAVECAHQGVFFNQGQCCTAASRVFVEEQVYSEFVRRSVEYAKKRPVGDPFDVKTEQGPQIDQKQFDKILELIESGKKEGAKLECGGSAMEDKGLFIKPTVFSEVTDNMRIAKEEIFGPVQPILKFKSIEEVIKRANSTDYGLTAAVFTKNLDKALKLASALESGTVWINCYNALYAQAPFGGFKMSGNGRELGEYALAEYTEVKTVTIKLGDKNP
Description: as §1, §2

Row | IC50 (ALDH1A1) [µM] | IC50 (ALDH1A2) [µM] | IC50 (ALDH1A3) [µM] | SMILES
1 | 114 | 92.8 | 14.5 | CCOC(=O)Cn1cc(COc2ccc(/C=C/C(O)=C/C(=O)/C=C/c3ccc(O)c(OC)c3)cc2OC)nn1 [Compound 14]
2 | 196 | 131 | 1.5 | COc1cc(/C=C/C(=O)/C=C(O)/C=C/c2ccc(OCc3cn(CCOc4ccc(C=O)cc4)nn3)c(OC)c2)ccc1O [Compound 13]
